# Results published in patent US12060347B2 (BRISTOL-MYERS SQUIBB COMPANY, priority 2016, dated 2024).
# Biological target: T1, human PAR4 (Homo sapiens, UniProt Q96RI0)
# T1 construct: expressed in transfected cells; host or cells: HEK293 PAR4 Clone 1.2A (BMS Arctic ID 383940)
# T1 sequence (Q96RI0 18-385): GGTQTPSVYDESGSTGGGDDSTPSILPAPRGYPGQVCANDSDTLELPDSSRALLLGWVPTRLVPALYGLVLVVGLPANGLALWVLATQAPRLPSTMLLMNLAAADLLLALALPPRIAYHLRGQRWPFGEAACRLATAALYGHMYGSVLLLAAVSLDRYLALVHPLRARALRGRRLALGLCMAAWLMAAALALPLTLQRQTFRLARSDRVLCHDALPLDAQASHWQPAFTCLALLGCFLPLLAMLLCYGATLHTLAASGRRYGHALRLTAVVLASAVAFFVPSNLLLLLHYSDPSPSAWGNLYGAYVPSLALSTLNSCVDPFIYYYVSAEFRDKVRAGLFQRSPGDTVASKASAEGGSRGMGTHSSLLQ
# Test: PAR4 FLIPR assay: antagonism of agonist-peptide-induced calcium mobilization in PAR4-expressing HEK293 cells
# Type: cell-based
# Conditions: H-Ala-Phe(4-F)-[…]NH2-induced intracellular calcium mobilization, 11-point curves
structure (smiles),measurement,value
"Cc1cc(-c2nc3cccc(CNS(=O)(=O)c4ccccc4)c3s2)c2ncc(OC(F)F)nc2c1 [Example 66, N-((2-(2-(difluoromethoxy)-7-methylquinoxalin-5-yl)benzo[d]thiazol-7-yl)methyl)benzenesulfonamide]",IC50,28 nM
"Cc1cc(-c2nc3c(F)cc(OCCNS(=O)(=O)c4ccccc4)cc3s2)c2ncc(OC(F)F)nc2c1 [Example 67, N-(2-(2-(2-(difluoromethoxy)-7-methylquinoxalin-5-yl)-4-fluorobenzo[d]thiazol-6-yloxy)ethyl)benzenesulfonamide]",IC50,2.9 nM
"Cc1ccc2sc(-c3cc(C)cc4nc(OC(F)F)cnc34)nc2c1 [Example 68, 2-(2-(difluoromethoxy)-7-methylquinoxalin-5-yl)-5-methylbenzo[d]thiazole]",IC50,120 nM
"COC(=O)NCCOc1cccc2nc(-c3cc(C)cc4nc(OC(F)F)cnc34)sc12 [Example 69, Methyl 2-(2-(2-(difluoromethoxy)-7-methylquinoxalin-5-yl)benzo[d]thiazol-7-yloxy)ethylcarbamate]",IC50,36 nM
"COC(=O)NCCOc1ccc(C)c2nc(-c3cc(C)cc4nc(OC(F)F)cnc34)sc12 [Example 70, Methyl 2-(2-(2-(difluoromethoxy)-7-methylquinoxalin-5-yl)-4-methylbenzo[d]thiazol-7-yloxy)ethylcarbamate]",IC50,34 nM
"Cc1cc(-c2nc3ccc(OCc4cscn4)cc3s2)c2ncc(OC(F)F)nc2c1 [Example 71, 2-(2-(difluoromethoxy)-7-methylquinoxalin-5-yl)-6-(thiazol-4-ylmethoxy) benzo[d]thiazole]",IC50,160 nM
"COc1cnc2c(-c3nc4ccc(OCCNS(=O)(=O)c5ccccc5)cc4s3)cc(C)cc2n1 [Example 72, N-(2-(2-(2-methoxy-7-methylquinoxalin-5-yl)benzo[d]thiazol-6-yloxy)ethyl)benzenesulfonamide]",IC50,1 nM
"Cc1cc(-c2nc3c(C)cc(OCCNS(=O)(=O)c4ccccc4)cc3s2)c2ncc(OC(F)F)nc2c1 [Example 73, N-(2-(2-(2-(difluoromethoxy)-7-methylquinoxalin-5-yl)-4-methylbenzo[d]thiazol-6-yloxy)ethyl)benzenesulfonamide]",IC50,2.3 nM
"Cc1cc(-c2nc3cccc(OCCO)c3s2)c2ncc(OC(F)F)nc2c1 [Example 74, 2-(2-(2-(difluoromethoxy)-7-methylquinoxalin-5-yl)benzo[d]thiazol-7-yloxy)ethanol]",IC50,9.3 nM
"COCCOc1cccc2nc(-c3cc(C)cc4nc(OC(F)F)cnc34)sc12 [Example 75, 2-(2-(difluoromethoxy)-7-methylquinoxalin-5-yl)-7-(2-methoxyethoxy)benzo[d]thiazole]",IC50,14 nM
"Cc1cc(-c2nc3cccc(NC(=O)OCc4ccccc4)c3s2)c2ncc(OC(F)F)nc2c1 [Example 76, benzyl 2-(2-(difluoromethoxy)-7-methylquinoxalin-5-yl)benzo[d]thiazol-7-ylcarbamate]",IC50,2.1 nM
"COCCOc1ccc2nc(-c3cc(C)cc4nc(OC)cnc34)sc2c1 [Example 77, 2-(2-methoxy-7-methylquinoxalin-5-yl)-6-(2-methoxyethoxy)benzo[d]thiazole]",IC50,130 nM
"COCCOc1cccc2nc(-c3cc(C)cc4nc(OC)cnc34)sc12 [Example 78, 2-(2-methoxy-7-methylquinoxalin-5-yl)-7-(2-methoxyethoxy)benzo[d]thiazole]",IC50,39 nM
"COC(=O)Nc1cccc2nc(-c3cc(C)cc4nc(OC(F)F)cnc34)sc12 [Example 80, Methyl 2-(2-(difluoromethoxy)-7-methylquinoxalin-5-yl)benzo[d]thiazol-7-ylcarbamate]",IC50,21 nM
"Cc1cc(-c2nc3c(C)cc(OCCNS(=O)(=O)c4ccc(F)cc4)cc3s2)c2ncc(OC(F)F)nc2c1 [Example 81, N-(2-(2-(2-(difluoromethoxy)-7-methylquinoxalin-5-yl)-4-methylbenzo[d]thiazol-6-yloxy)ethyl)-4-fluorobenzenesulfonamide]",IC50,1.5 nM
"Cc1cc(-c2nc3cccc(OCC(=O)Nc4ccccc4)c3s2)c2ncc(OC(F)F)nc2c1 [Example 82, 2-(2-(2-(difluoromethoxy)-7-methylquinoxalin-5-yl)benzo[d]thiazol-7-yloxy)-N-phenylacetamide]",IC50,280 nM
"Cc1cc(-c2nc3c(C)cc(OCCNS(=O)(=O)c4ccc(C(F)(F)F)cc4)cc3s2)c2ncc(OC(F)F)nc2c1 [Example 83, N-(2-(2-(2-(difluoromethoxy)-7-methylquinoxalin-5-yl)-4-methylbenzo[d]thiazol-6-yloxy)ethyl)-4-(trifluoromethyl)benzenesulfonamide]",IC50,11 nM
"Cc1cc(-c2nc3c(C)cc(OCCNS(=O)(=O)c4ccc(F)cc4F)cc3s2)c2ncc(OC(F)F)nc2c1 [Example 84, N-(2-(2-(2-(difluoromethoxy)-7-methylquinoxalin-5-yl)-4-methylbenzo[d]thiazol-6-yloxy)ethyl)-2,4-difluorobenzenesulfonamide]",IC50,2.5 nM
"Cc1cc(-c2nc3c(C)cc(OCCNS(=O)(=O)c4ccc(F)c(F)c4)cc3s2)c2ncc(OC(F)F)nc2c1 [Example 85, N-(2-(2-(2-(difluoromethoxy)-7-methylquinoxalin-5-yl)-4-methylbenzo[d]thiazol-6-yloxy)ethyl)-3,4-difluorobenzenesulfonamide]",IC50,8.5 nM
"Cc1cc(-c2nc3c(C)cc(OCCNS(=O)(=O)c4ccc(Cl)cc4)cc3s2)c2ncc(OC(F)F)nc2c1 [Example 86, 4-chloro N-(2-(2-(2-(difluoromethoxy)-7-methylquinoxalin-5-yl)-4-methylbenzo[d]thiazol-6-yloxy)ethyl)benzenesulfonamide]",IC50,7.2 nM
"COc1cnc2c(-c3nc4c(C)cc(OCCNS(=O)(=O)c5ccc(C)cc5)cc4s3)cc(C)cc2n1 [Example 87, N-(2-(2-(2-methoxy-7-methylquinoxalin-5-yl)-4-methylbenzo[d]thiazol-6-yloxy)ethyl)-4-methylbenzenesulfonamide]",IC50,2 nM
"COc1cnc2c(-c3nc4c(C(F)(F)F)cc(OCCNS(=O)(=O)c5ccc(F)cc5)cc4s3)cc(C)cc2n1 [Example 90, 4-fluoro N-(2-(2-(2-methoxy-7-methylquinoxalin-5-yl)-4-(trifluoromethyl)benzo[d]thiazol-6-yloxy)ethyl)benzenesulfonamide]",IC50,84 nM
"Cc1cc(-c2nc3c(C)cc(OCCNS(=O)(=O)c4ccc(F)cc4)cc3s2)c2ncc(C3CC3)nc2c1 [Example 91, N-(2-(2-(2-cyclopropyl-7-methylquinoxalin-5-yl)-4-methylbenzo[d]thiazol-6-yloxy)ethyl)-4-fluorobenzenesulfonamide]",IC50,62 nM
"COCc1cnc2c(-c3nc4c(C)cc(OCCNC(=O)OCc5ccccc5)cc4s3)cc(C)cc2n1 [Example 92, Benzyl 2-(2-(2-(methoxymethyl)-7-methylquinoxalin-5-yl)-4-methylbenzo[d]thiazol-6-yloxy)ethylcarbamate]",IC50,2 nM
"COCc1cnc2c(-c3nc4c(Cl)cc(OC)cc4s3)cc(C)cc2n1 [Example 93, 4-chloro-6-methoxy-2-(2-(methoxymethyl)-7-methylquinoxalin-5-yl)benzo[d]thiazole]",IC50,0.3 nM
"COCc1cnc2c(-c3cc4cc(OC)ccc4o3)cc(C)cc2n1 [Example 94, 5-(5-methoxybenzofuran-2-yl)-2-(methoxymethyl)-7-methylquinoxaline]",IC50,1.4 nM
"COCc1cnc2c(-c3nc4c(C)cc(OCCNS(=O)(=O)c5ccccc5)cc4s3)cc(C)cc2n1 [Example 95, N-(2-((2-(2-(methoxymethyl)-7-methylquinoxalin-5-yl)-4-methylbenzo[d]thiazol-6-yl)oxy)ethyl)benzenesulfonamide]",IC50,0.8 nM
"COCc1cnc2c(-c3nc4c(C)cc(OCCNS(=O)(=O)c5ccccc5F)cc4s3)cc(C)cc2n1 [Example 96, 2-fluoro N-(2-(2-(2-(methoxymethyl)-7-methylquinoxalin-5-yl)-4-methylbenzo[d]thiazol-6-yloxy)ethyl)benzenesulfonamide]",IC50,1.1 nM
"COCc1cnc2c(-c3nc4c(C)cc(OCCNS(=O)(=O)c5cccc(F)c5)cc4s3)cc(C)cc2n1 [Example 97, 3-fluoro N-(2-(2-(2-(methoxymethyl)-7-methylquinoxalin-5-yl)-4-methylbenzo[d]thiazol-6-yloxy)ethyl)benzenesulfonamide]",IC50,1.7 nM
"COCc1cnc2c(-c3nc4c(Cl)cc(OCCNS(C)(=O)=O)cc4s3)cc(C)cc2n1 [Example 98, N-(2-(4-chloro-2-(2-(methoxymethyl)-7-methylquinoxalin-5-yl)benzo[d]thiazol-6-yloxy)ethyl)methanesulfonamide]",IC50,0.3 nM
"COCc1cnc2c(-c3nc4c(Cl)cc(OCCNS(=O)(=O)c5ccccc5)cc4s3)cc(C)cc2n1 [Example 99, N-(2-(4-chloro-2-(2-(methoxymethyl)-7-methylquinoxalin-5-yl)benzo[d]thiazol-6-yloxy)ethyl)benzenesulfonamide]",IC50,0.6 nM
"COCc1cnc2c(-c3nc4c(Cl)cc(OCCNS(=O)(=O)c5ccccc5F)cc4s3)cc(C)cc2n1 [Example 100, N-(2-(4-chloro-2-(2-(methoxymethyl)-7-methylquinoxalin-5-yl)benzo[d]thiazol-6-yloxy)ethyl)-2-fluorobenzenesulfonamide]",IC50,0.5 nM
"COCc1cnc2c(-c3nc4c(Cl)cc(OCCNS(=O)(=O)c5ccc(F)cc5)cc4s3)cc(C)cc2n1 [Example 101, N-(2-(4-chloro-2-(2-(methoxymethyl)-7-methylquinoxalin-5-yl)benzo[d]thiazol-6-yloxy)ethyl)-4-fluorobenzenesulfonamide]",IC50,0.2 nM
